Here are results for one molecule from BindingDB's records for patent US20250270222 (Satellos Bioscience, 2025).

Bounds are passed on as bounds.

Assay [1] concerns the target T1, BMP-2-inducible protein kinase [38-345,K320A,K321A] (Human, UniProt Q9NSY1, K320A/K321A).
T1 construct: 38-345
As to the kind of experiment: BIKE pSENs Assay. On the procedure:
BIKE protein was dissolved at 20 nM in 1× enzyme solution (50 mM HEPES pH7.5, 10 mM MgCl2, 1 mM DTT, 1% glycerol, 0.5 mM EGTA, 0.01% Briji35, 0.02% BSA) and 12.5 ul was incubated with 250 nl DMSO or 250 nl compound in DMSO at 25° C. for 15 min. The reaction was started by addition of 12.5 ul of 30 uM AQT0759 (Assayquant, CSKS-AQT0759B) and 40 uM ATP which were diluted in 1× substrate dilution buffer (50 mM HEPES pH7.5, 10 mM MgCl2. 1 mM DTT, 1% glycerol, 0.5 mM EGTA, 0.01% Briji35).

Assay [2] concerns the target T2, Cyclin-G-associated kinase [25-335] (Human, UniProt O14976).
T2 construct: 25-335
T2 sequence (O14976 whole entry): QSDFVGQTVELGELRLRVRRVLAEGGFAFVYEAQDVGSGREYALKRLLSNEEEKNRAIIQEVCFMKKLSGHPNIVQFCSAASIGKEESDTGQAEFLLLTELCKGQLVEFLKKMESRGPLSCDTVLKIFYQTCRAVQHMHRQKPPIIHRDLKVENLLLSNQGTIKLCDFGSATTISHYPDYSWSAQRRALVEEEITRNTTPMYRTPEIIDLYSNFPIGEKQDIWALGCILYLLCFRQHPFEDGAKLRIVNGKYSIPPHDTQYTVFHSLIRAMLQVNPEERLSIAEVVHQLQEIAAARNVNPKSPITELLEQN
Put plainly: GAK pSENs Assay. From the text:
This example describes one illustrative method for determining the IC50 of the compounds of the present invention against GAK (amino acids Q25-N335).

For orientation: IC50 means the point on the concentration scale where inhibition reaches its midpoint.

T1 sequence (Q9NSY1 38-345 K320A/K321A): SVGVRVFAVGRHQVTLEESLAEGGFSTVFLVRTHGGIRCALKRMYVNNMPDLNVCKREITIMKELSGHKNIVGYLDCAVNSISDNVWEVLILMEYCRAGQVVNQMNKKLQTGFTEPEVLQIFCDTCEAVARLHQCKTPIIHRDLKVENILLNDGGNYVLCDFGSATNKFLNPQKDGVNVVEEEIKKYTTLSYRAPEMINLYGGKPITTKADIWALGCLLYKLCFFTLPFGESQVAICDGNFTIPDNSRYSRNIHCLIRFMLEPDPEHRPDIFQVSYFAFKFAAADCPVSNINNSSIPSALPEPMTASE

As to `CN(CCN1C[C@@H](OC(=O)N2CCN(c3ccn4ncc(-c5cccnc5OC5CC5)c4n3)CC2)CC1=O)C(=O)OC(C)(C)C` [US20250270222, Compound I-35], the concentration for half-maximal inhibition (IC50) in assay [1] and in assay [2] was more than 1.5 µM throughout.
